The values below come from patent US20240122954A1 (YEP BIO CO. LTD., priority 2021, published 2024).

The subject of series [1] is microglia. Kind of series: Cytokine secretion of LPS-treated microglia (multiplexing of conditioned media). It is filed as cell-based. Conditions: conditioned media after 24 hours.
Series [2] concerns BV2 cells, a microglia cell line. Kind of series: Inhibition of LPS-induced microglia activity (cell number, Iba1 fluorescence intensity). As to conditions: for fluorescence intensity of Iba1 (FIG. 8) / number of cells (FIG. 8): LPS-treated microglia, 24 hours. It is filed as cell-based. The procedure:
(§1) BV2 cells were cultured in high glucose DMEM medium containing 10% FBS and penicillin-streptomycin solution (5000 units/ml penicillin, 5 mg/ml streptomycin, Corning, USA) in a cell incubator at 37° C. in 5% CO2, which was used by subculturing three times a week therein.
(§2) Cultured BV2 cells were harvested using 0.1% trypsin to obtain a population, and cultured in 96-well plates pre-coated with Poly-D-Lysine (Sigma).
BV2 cells, a microglia cell line, were treated with LPS to induce microglia activation and inflammation, and eleutheroside B was treated at a concentration of 1 mM to 0.1 nM. The proliferation number and morphology changes after 24 hours of eleutheroside B treatment were quantified, and the activity level of microglial cells was verified by the fluorescence intensity of Iba1 (FIG. 6).
In order to confirm the regulation of the inflammatory response through the inhibition of microglia activity by eleutheroside B in a more precise way, high content imaging was analyzed by classifying into the number of proliferated cells and the fluorescence intensity of Iba1, and the results are shown in FIG. 8.

For series [3], the system named is astrocytes. The series is described as follows: Cytokine secretion of LPS-treated astrocytes (multiplexing of conditioned media). It is filed as cell-based, rats. As to conditions: conditioned media after 24 hours.
Method: In order to more accurately study the above effect, the secretion of cytokines was observed simultaneously with the effect of inhibiting the activity of astrocytes. After 24 hours of treatment with LPS and drugs, conditioned media were collected and changes in pro-inflammatory cytokines (TNFα) and anti-inflammatory cytokines (IL-10) were examined.
Series [4] has as its system BV2 cells. As to conditions: according to the report; cited from earlier work.
For series [5], the system named is astrocytes (GFAP). The series is described as follows: Brain immunohistochemistry of astrocyte activity (GFAP) in hippocampus of 5×FAD. In kind it is in vivo, mouse. As to conditions: 50 or 150 mg/kg intraperitoneally twice a week. The procedure: (§3) In 5×FAD, an animal model of Alzheimer's disease, amyloid protein is deposited from 2.5 months and cognitive function is impaired from 6 months. Accordingly, eleutheroside B (vehicle, 50 or 150 mg/kg) was intraperitoneally administered twice a week from 4 months, and working memory ability was measured at 6 months when cognitive function was impaired. The experimental groups were 3 animals each of WT+vehicle, TG+vehicle, TG+50 mg/kg (TG_E.B(L)), and TG+150 mg/kg (TG_E.B(H)) of the same age as TG. Working memory ability was measured with Y-maze, and pre-adaptation training for the maze was performed the day before the maze experiment.
(§4) In order to confine the pathological changes related to cognitive improvement, blood was removed by perfusion through the heart. The blood-free brain was fixed in 4% paraformaldehyde for one day, then made into a paraffin block and fabricated into 4 μm tissue sections for histological staining. The activities of astrocytes (GFAP) and microglia (Iba 1) were measured by confocal microscopy in the dentate gyrus, CA1, and CA3 regions of the hippocampus and the entorhinal cortex, which are major damaged areas in Alzheimer's disease.

In series [6] the test system is 5×FAD. The series is described as follows: Working memory ability (Y-maze) in 5×FAD Alzheimer's disease animal model. It is filed as in vivo, mouse. As to conditions: 50 or 150 mg/kg intraperitoneally twice a week from 4 months, measured at 6 months. How it is done:
as §3
Working memory performance was performed by sequentially moving through three passages for 8 minutes in a Y-shaped maze to check whether the movement to the previous passage was remembered, and the degree of cognitive impairment was confirmed by calculating the ratio of sequentially crossing the three passages.

For series [7], the system named is astrocytes. Kind of series: Inhibition of LPS-induced astrocyte activity (cell number, cell area, GFAP intensity; high content imaging). In kind it is cell-based, rats. Conditions: LPS-activated astrocytes. The procedure:
The brains of 1-2 day old rats were excised, separated from the cerebral cortex, and cultured. That is, the […] cortex was divided into single cells in high-glucose DMEM medium containing 10% FBS and penicillin-streptomycin solution (5000 units/ml penicillin, 5 mg/ml streptomycin, Corning, USA), and cultured in a 75-cm2T flask. (0.5 hemispheres/flask) in a cell incubator at 5% CO2 and 37° C.
After 1 week of culture, microglia were removed by shaking at 250 rpm for 4 hours, and the cultured astrocytes were harvested using 0.1% trypsin to obtain an astrocyte population. Astrocytes were cultured in 6-well plates previously coated with Poly-D-Lysine (Sigma).
Astrocytes were used after primary culture was isolated from the brain of pup within 1 to 3 days after birth, and the separated astrocytes were treated with LPS at expressing the lowest concentration of IL-6. The drug treatment was performed simultaneously with LPS, and the activity of astrocytes was evaluated through the number of proliferated cells and changes in morphology (FIG. 2).

Series [8] concerns Neuro-2a. Kind of series: Neuronal differentiation marker analysis by qPCR in neuroblast cell line. It is filed as cell-based. As to conditions: compared to the control. The procedure:
(§5) B6;SJL-Tg(APPSWE)2576Kha, a genetically modified mouse for […], was used as an in-vitro brain disease model. Neural stem cells were isolated from subventricular zone (SVZ) tissues of transgenic newborn mice and neurospheres were cultured. In addition, neurosphere cells were induced to attach to the bottom with 5% FBS+F12/DMEM medium for 48 hours, and to observe differentiation potential, eleutheroside B in 5% BS+F12/DMEM medium was added to the cells, and neurite activity was observed under a microscope. In addition, the neuronal cell differentiation potential using the Neuro-2a cell line, which is a neuroblast, was confirmed. To confirm differentiation, neural differentiation markers such as DCX, Tuj1, neuroD, and NeuN were confirmed by qPCR.
In order to examine this at a molecular level, RNA analysis of neuronal differentiation markers (Sox2, Nestin, NeuroD, DCX, Tuj-1, NeuN) was performed, and the results are shown in FIG. 11.
When confirming the neuronal differentiation marker, a neuroblast cell line, Neuro-2a was used, and the differentiation was confirmed by qPCR to observe if the amoeba-type metaphase cells were differentiated into neurons by the drug.
On the technique in general: In qPCR the cycle at which signal appears reflects the starting amount.

In series [9] the test system is BV2 cells. Kind of series: Cytotoxicity of eleutheroside B to microglia (CCK-8/WST-8 survival rate). It is filed as cell-based. As to conditions: 24 hours, mean±standard deviation. The procedure: as §1, §2
In order to check the cytotoxicity of eleutheroside B, BV2 cells (3×10^5 cells/well) were cultured in a 96-well culture plate for 24 hours, and then treated with various concentrations of eleutheroside B, followed by incubation for 24 hours. After 24 hours, the medium was removed and WST-8 [2-(2-methoxy-4-nitrophenyl)-3-(4-nitrophenyl)-5-(2,4-disulfophenyl)-2H-tetrazolium (Cell Counting Kit-8 (CCK-8), dojindo)] was added at a concentration of 100 uL/mL to induce a reduction reaction while incubating for 1 hour, and then absorbance (450 nm) was measured. Cell viability (%) (viability (%)=(treated group−negative control)/(positive control−negative control)×100) was calculated using the eleutheroside B treated group and the untreated control group.

Series [10] deals with microglia (Iba 1). The series is described as follows: Brain immunohistochemistry of microglia activity (Iba 1) in hippocampus of 5×FAD. Conditions: 50 or 150 mg/kg intraperitoneally twice a week. It is filed as in vivo, mouse. The procedure: as §3, §4
The test system of series [11] is neural stem cells. The series is described as follows: Neurite activity from neural stem cells of B6;SJL-Tg(APPSWE)2576Kha transgenic mice. It is filed as cell-based. As to conditions: 0.01 pg/mL and 1 pg/mL, compared to the control group. The procedure: as §5
In order to confirm the activity of neurite from neural stem cells according to eleutheroside B treatment, B6;SJL-Tg(APPSWE)2576Kha, a genetically modified mouse for degenerative brain disease, was used as an in-vitro brain disease model. Neural stem cells were isolated from the subventricular zone (SVZ) tissue of genetically modified newborn mice, and the number of cells to be used in the experiment was secured through neurosphere culture. […]

The mark [12] stands for this setting: 1-10 nM drug, compared to LPS activity.

Consider `COc1cc2c(cc1OC)C(=O)C(CC1CCN(Cc3ccccc3)CC1)C2` (centres unmarked) [donepezil, reference compound], for which, in [1], the “anti-inflammatory cytokine IL-10 secretion” value is listed as “does not affect cytokine secretion” and the “pro-inflammatory cytokine TNF-α secretion” value is “does not affect cytokine secretion”. Moreover, in [2], the “fluorescence intensity of Iba1 (FIG. 8)” value is listed as “relatively less microglial activity inhibition pattern than eleutheroside B” and the “number of cells (FIG. 8)” value is on record as “inhibiting microglia apoptosis”. In [3], the “anti-inflammatory cytokine IL-10 secretion” value was “did not affect cytokine secretion” and the “pro-inflammatory cytokine TNF-α secretion” value is given as “did not affect cytokine secretion”.

In the case of `COc1cc(/C=C/CO)cc(OC)c1O[C@@H]1O[C@H](CO)[C@@H](O)[C@H](O)[C@H]1O` [eleutheroside B], in series [1], the “anti-inflammatory cytokine IL-10 secretion” value is “increased” and the “pro-inflammatory cytokine TNF-α secretion” value is recorded as “significant decrease in the pro-inflammatory cytokine TNF-α was not confirmed”. Further, the “concentration at which cytotoxicity was reported” value in series [4] is 40 µM. Besides, the “activity of astrocytes / inflammation in CA1 of the hippocampus (FIG. 15)” value in [5] is on record as “greatly reduced”. Moreover, in [6], the “working memory ability (Y-maze)” value was “almost the same remarkable cognitive ability improvement as the control group”. Further, in series [2] (LPS-activated microglia, 10 nM), the “Iba1 fluorescence intensity (FIG. 7)” value was “reduced to almost the same intensity as that of the control”. For the same compound, in series [2], the “fluorescence intensity of Iba1 (FIG. 8)” value is “decrease” and the “number of cells (FIG. 8)” value is “increased”. For the same compound, in series [3], the “anti-inflammatory cytokine IL-10 secretion” value was “increased” and the “pro-inflammatory cytokine TNF-α secretion” value is reported as “decreased”. For the same compound, the “GFAP fluorescence intensity (FIG. 3)” value in [7] (0.01 pg of eleutheroside B) is “reduced to almost the same intensity as the control”. Moreover, in series [7] (setting [12]), the “cell area (FIG. 4)” value was “reduced”, the “intensity of GFAP (FIG. 4)” value is reported as “reduced” and the “number of proliferated cells (FIG. 4)” value is on record as “showed cell proliferation compared to LPS activity”. In addition, in series [8], the “DCX (differentiation marker)” value was “slight increase”, the “Tuj1 (differentiation marker)” value was “slight increase”, the “nestine (expansion phase marker)” value is recorded as “significant increase” and the “neuN (integration phase marker)” value is listed as “significant increase”. Further, in [8], the “neuroD (differentiation phase marker)” value is “significant increase” and the “sox2 (expansion phase marker)” value is “significant increase”. Further, the survival rate in series [9] (20 uM) was found to be 92±13.3%. Besides, the survival rate in series [9] (40 uM) was 88±24.8%. Also, in [10], the “fluorescence intensity of Iba 1 in hippocampus (FIG. 16)” value is on record as “lower than that of the Alzheimer's disease animal model” and the “microglia / inflammation in CA1 of the hippocampus (FIG. 18)” value is given as “greatly reduced almost as in the normal state”. In addition, the “inflammation / activity of microglial cells in all areas of the hippocampus (FIG. 17)” value in series [10] (compared to the Alzheimer's disease animal model) is “suppressed”. Further, the “neurites (FIG. 10)” value in series [11] was “showed an increase in neurites”.
